Reference: ChEMBL document CHEMBL1140456, “Synthesis and screening of 3-substituted thioxanthen-9-one-10,10-dioxides” (Bioorg Med Chem Lett, 2007)

Target: Breast cancer type 1 susceptibility protein (Homo sapiens, UniProt P38398)
Assay: Inhibition of BRCA1 assessed as BRCT-BACH1 interaction

Sequence of Breast cancer type 1 susceptibility protein (P38398 whole entry): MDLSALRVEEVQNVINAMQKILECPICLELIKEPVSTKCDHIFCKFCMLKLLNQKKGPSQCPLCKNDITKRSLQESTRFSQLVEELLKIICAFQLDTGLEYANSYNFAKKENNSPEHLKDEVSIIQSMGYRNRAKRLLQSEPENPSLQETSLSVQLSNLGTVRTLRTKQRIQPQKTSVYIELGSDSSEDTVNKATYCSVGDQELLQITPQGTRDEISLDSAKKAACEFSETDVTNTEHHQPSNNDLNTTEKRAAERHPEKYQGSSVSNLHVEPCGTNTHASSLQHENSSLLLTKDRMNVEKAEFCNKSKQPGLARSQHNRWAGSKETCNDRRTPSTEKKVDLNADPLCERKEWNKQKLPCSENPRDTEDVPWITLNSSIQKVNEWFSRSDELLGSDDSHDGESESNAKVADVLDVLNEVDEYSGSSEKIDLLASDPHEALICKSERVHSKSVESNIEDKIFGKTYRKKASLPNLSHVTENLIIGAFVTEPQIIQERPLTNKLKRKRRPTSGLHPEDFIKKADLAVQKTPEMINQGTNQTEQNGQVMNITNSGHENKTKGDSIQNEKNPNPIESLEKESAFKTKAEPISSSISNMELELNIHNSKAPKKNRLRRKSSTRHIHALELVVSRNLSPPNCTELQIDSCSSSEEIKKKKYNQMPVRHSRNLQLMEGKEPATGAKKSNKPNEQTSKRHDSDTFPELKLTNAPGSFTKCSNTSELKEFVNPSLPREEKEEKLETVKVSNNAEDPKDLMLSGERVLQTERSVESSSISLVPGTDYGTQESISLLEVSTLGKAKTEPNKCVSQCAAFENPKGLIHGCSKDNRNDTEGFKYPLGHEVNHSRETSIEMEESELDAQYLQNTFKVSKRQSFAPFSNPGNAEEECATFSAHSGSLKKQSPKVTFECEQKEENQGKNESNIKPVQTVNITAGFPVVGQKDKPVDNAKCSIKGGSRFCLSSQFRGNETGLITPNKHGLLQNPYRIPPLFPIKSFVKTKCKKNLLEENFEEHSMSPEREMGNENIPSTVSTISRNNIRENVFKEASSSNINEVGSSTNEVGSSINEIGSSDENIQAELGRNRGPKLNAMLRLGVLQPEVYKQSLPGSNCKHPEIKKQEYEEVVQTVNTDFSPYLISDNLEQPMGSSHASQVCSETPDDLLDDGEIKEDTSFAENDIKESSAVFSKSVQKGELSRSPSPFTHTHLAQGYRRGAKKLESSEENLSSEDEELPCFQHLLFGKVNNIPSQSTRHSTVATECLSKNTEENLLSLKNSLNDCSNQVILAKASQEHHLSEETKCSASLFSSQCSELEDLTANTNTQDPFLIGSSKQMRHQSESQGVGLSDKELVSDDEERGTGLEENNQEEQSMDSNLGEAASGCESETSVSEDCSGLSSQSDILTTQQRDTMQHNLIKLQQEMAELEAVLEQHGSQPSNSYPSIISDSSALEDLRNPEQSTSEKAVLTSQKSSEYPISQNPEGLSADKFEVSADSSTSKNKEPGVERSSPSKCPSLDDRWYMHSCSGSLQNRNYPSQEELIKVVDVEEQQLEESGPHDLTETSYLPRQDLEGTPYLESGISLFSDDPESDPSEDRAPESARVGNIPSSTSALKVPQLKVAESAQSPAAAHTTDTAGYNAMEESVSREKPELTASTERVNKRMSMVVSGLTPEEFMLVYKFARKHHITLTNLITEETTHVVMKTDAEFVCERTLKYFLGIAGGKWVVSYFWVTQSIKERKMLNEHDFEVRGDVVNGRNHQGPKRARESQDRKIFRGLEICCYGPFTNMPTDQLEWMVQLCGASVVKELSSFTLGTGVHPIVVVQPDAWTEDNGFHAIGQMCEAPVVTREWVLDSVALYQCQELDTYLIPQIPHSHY

Ki [µM]	Structure (SMILES)
39	CC1CCN(c2ccc3c(c2)S(=O)(=O)c2ccccc2C3=O)CC1
30	NC(=O)C1CCN(c2ccc3c(c2)S(=O)(=O)c2ccccc2C3=O)CC1
38	O=C1c2ccccc2S(=O)(=O)c2cc(N3CCC(Cc4ccccc4)CC3)ccc21
